Assays:
Assay in all cases: Kinase panel, CaNDY 1 µM
Type in all cases: biochemical
Settings in all cases: CaNDY 1 µM relative to DMSO
PGK = molecular target: T1, PGK (Homo sapiens, UniProt Q13976)
T1 construct: purchased Carna Biosciences
In short: (§1)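 Off-chip mobility shift read-out: electrophoretic separation of substrate and phosphorylated product after 1 h at RT. Enzymes were N-terminally GST-tagged full-length human proteins made in baculovirus. Percent inhibition came from P/(P+S) relative to a no-compound control, at 1% DMSO final.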

p38δ = molecular target: T2, p38δ (Homo sapiens, UniProt O15264)
T2 construct: purchased Carna Biosciences
In short: as §1

PKACγ = molecular target: T3, PKACγ (Homo sapiens, UniProt P22612)
T3 construct: purchased Carna Biosciences
In short: as §1

PKCη = molecular target: T4, PKCη (Homo sapiens, UniProt P24723)
T4 construct: purchased Carna Biosciences
In short: as §1

DLK_Cascade = molecular target: T5, DLK_Cascade (Homo sapiens, UniProt Q12852)
T5 construct: purchased Carna Biosciences
In short: as §1

AKT2 = molecular target: T6, AKT2 (Homo sapiens, UniProt P31751)
T6 construct: purchased Carna Biosciences
In short: as §1

CHK1 = molecular target: T7, CHK1 (Homo sapiens, UniProt O14757)
T7 construct: purchased Carna Biosciences
In short: as §1

FLT4 = molecular target: T8, FLT4 (Homo sapiens, UniProt P35916)
T8 construct: purchased Carna Biosciences
In short: as §1

IKKβ = molecular target: T9, IKKβ (Homo sapiens, UniProt O14920)
T9 construct: purchased Carna Biosciences
In short: as §1

SRM = molecular target: T10, SRM (Homo sapiens, UniProt Q9H3Y6)
T10 construct: purchased Carna Biosciences
In short: as §1

MARK1 = molecular target: T11, MARK1 (Homo sapiens, UniProt Q9P0L2)
T11 construct: purchased Carna Biosciences
In short: as §1

MARK4 = molecular target: T12, MARK4 (Homo sapiens, UniProt Q96L34)
T12 construct: purchased Carna Biosciences
In short: as §1

PASK = molecular target: T13, PASK (Homo sapiens, UniProt Q96RG2)
T13 construct: purchased Carna Biosciences
In short: as §1

p70S6Kβ = molecular target: T14, p70S6Kβ (Homo sapiens, UniProt Q9UBS0)
T14 construct: purchased Carna Biosciences
In short: as §1

CaMK4 = molecular target: T15, CaMK4 (Homo sapiens, UniProt Q16566)
T15 construct: purchased Carna Biosciences
In short: as §1

MAP3K3_Cascade = molecular target: T16, MAP3K3_Cascade (Homo sapiens, UniProt Q99759)
T16 construct: purchased Carna Biosciences
In short: as §1

EPHB2 = molecular target: T17, EPHB2 (Homo sapiens, UniProt P29323)
T17 construct: purchased Carna Biosciences
In short: as §1

EPHA5 = molecular target: T18, EPHA5 (Homo sapiens, UniProt P54756)
T18 construct: purchased Carna Biosciences
In short: as §1

AKT1 = molecular target: T19, AKT1 (Homo sapiens, UniProt P31749)
T19 construct: purchased Carna Biosciences
In short: as §1

p38β = molecular target: T20, p38β (Homo sapiens, UniProt Q15759)
T20 construct: purchased Carna Biosciences
In short: as §1

ALK(R1275Q) = molecular target: T21, ALK(R1275Q) (Homo sapiens, UniProt Q9UM73, R1275Q)
T21 construct: purchased Carna Biosciences
In short: as §1

MRCKα = molecular target: T22, MRCKα (Homo sapiens, UniProt Q5VT25)
T22 construct: purchased Carna Biosciences
In short: as §1

MET = molecular target: T23, MET (Homo sapiens, UniProt P08581)
T23 construct: purchased Carna Biosciences
In short: as §1

FGFR3(K650M) = molecular target: T24, FGFR3(K650M) (Homo sapiens, UniProt P22607, K650M)
T24 construct: purchased Carna Biosciences
In short: as §1

EPHA6 = molecular target: T25, EPHA6 (Homo sapiens, UniProt Q9UF33)
T25 construct: purchased Carna Biosciences
In short: as §1

p38α = molecular target: T26, p38α (Homo sapiens, UniProt Q16539)
T26 construct: purchased Carna Biosciences
In short: as §1

DDR1 = molecular target: T27, DDR1 (Homo sapiens, UniProt Q08345)
T27 construct: purchased Carna Biosciences
In short: as §1

PKD3 = molecular target: T28, PKD3 (Homo sapiens, UniProt O94806)
T28 construct: purchased Carna Biosciences
In short: as §1

SGK3 = molecular target: T29, SGK3 (Homo sapiens, UniProt Q96BR1)
T29 construct: purchased Carna Biosciences
In short: as §1

TSSK1 = molecular target: T30, TSSK1 (Homo sapiens, UniProt Q9BXA7)
T30 construct: purchased Carna Biosciences
In short: as §1

NPM1-ALK = molecular target: T31, NPM1-ALK (Homo sapiens, UniProt P06748+Q9UM73)
T31 construct: purchased Carna Biosciences
In short: as §1

DAPK1 = molecular target: T32, DAPK1 (Homo sapiens, UniProt P53355)
T32 construct: purchased Carna Biosciences
In short: as §1

YES = molecular target: T33, YES (Homo sapiens, UniProt P07947)
T33 construct: purchased Carna Biosciences
In short: as §1

SRC = molecular target: T34, SRC (Homo sapiens, UniProt P12931)
T34 construct: purchased Carna Biosciences
In short: as §1

ROCK1 = molecular target: T35, ROCK1 (Homo sapiens, UniProt Q13464)
T35 construct: purchased Carna Biosciences
In short: as §1

HIPK1 = molecular target: T36, HIPK1 (Homo sapiens, UniProt Q86Z02)
T36 construct: purchased Carna Biosciences
In short: as §1

T29 sequence (Q96BR1 whole entry): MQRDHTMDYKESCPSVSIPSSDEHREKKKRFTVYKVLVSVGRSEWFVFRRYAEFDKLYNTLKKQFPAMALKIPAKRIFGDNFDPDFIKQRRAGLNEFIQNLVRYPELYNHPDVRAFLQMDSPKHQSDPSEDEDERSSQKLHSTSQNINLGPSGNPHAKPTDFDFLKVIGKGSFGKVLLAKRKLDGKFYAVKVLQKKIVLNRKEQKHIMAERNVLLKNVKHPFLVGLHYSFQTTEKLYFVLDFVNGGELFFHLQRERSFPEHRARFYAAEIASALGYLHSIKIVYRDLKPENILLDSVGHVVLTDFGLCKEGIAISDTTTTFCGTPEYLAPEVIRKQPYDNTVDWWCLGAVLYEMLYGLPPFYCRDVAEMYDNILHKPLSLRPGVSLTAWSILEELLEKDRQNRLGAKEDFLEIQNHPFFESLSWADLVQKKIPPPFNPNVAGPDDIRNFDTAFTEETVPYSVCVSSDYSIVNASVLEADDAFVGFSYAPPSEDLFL
T9 sequence (O14920 whole entry): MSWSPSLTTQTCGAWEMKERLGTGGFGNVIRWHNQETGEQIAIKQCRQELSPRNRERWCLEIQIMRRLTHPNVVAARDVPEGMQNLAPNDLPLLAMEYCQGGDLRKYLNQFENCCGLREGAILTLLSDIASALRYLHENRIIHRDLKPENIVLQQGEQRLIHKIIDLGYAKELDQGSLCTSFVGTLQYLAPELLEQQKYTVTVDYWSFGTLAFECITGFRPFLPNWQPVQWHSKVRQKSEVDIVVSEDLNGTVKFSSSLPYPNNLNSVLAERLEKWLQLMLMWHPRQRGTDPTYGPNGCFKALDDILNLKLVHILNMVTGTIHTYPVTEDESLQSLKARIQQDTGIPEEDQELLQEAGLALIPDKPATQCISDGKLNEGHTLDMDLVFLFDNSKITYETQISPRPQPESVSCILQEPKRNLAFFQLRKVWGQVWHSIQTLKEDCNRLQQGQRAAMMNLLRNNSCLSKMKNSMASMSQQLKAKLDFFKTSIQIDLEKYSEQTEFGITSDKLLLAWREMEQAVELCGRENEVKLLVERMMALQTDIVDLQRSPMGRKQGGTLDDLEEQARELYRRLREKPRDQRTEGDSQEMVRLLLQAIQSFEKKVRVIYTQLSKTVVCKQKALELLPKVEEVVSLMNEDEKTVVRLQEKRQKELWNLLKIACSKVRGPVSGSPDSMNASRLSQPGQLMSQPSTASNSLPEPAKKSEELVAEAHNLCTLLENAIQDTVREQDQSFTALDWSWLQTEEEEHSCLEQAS
T11 sequence (Q9P0L2 whole entry): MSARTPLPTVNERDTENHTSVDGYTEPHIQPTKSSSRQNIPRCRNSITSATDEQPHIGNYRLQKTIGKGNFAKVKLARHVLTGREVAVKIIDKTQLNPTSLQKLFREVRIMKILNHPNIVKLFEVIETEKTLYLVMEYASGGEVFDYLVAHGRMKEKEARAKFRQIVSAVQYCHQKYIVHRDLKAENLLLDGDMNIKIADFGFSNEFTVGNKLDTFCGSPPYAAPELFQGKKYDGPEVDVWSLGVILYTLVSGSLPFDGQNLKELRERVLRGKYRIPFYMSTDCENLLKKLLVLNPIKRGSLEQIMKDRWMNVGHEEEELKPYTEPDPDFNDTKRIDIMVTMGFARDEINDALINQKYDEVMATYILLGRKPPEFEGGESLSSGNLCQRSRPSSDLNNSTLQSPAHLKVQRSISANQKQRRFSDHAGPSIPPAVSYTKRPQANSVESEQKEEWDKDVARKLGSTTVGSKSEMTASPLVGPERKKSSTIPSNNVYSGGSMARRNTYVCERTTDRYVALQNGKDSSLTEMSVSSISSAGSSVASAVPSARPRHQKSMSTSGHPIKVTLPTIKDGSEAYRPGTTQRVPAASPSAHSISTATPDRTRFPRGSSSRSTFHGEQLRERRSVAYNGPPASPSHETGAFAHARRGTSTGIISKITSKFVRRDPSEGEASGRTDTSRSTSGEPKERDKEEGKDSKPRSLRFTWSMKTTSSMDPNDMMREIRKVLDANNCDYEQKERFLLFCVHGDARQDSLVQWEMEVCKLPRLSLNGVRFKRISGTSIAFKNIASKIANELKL
T19 sequence (P31749 whole entry): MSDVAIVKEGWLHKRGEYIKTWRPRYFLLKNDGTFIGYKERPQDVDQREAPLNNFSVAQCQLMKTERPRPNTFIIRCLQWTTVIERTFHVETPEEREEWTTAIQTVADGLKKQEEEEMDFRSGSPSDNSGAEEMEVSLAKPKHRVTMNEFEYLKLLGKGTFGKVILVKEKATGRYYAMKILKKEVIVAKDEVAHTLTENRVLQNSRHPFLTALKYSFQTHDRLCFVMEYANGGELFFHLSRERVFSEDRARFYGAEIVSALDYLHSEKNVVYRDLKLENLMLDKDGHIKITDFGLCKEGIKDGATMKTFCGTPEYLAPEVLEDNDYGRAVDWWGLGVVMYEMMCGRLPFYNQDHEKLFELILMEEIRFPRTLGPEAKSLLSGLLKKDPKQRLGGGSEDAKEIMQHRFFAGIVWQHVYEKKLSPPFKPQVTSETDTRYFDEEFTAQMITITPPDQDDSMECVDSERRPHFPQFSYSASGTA
T5 sequence (Q12852 whole entry): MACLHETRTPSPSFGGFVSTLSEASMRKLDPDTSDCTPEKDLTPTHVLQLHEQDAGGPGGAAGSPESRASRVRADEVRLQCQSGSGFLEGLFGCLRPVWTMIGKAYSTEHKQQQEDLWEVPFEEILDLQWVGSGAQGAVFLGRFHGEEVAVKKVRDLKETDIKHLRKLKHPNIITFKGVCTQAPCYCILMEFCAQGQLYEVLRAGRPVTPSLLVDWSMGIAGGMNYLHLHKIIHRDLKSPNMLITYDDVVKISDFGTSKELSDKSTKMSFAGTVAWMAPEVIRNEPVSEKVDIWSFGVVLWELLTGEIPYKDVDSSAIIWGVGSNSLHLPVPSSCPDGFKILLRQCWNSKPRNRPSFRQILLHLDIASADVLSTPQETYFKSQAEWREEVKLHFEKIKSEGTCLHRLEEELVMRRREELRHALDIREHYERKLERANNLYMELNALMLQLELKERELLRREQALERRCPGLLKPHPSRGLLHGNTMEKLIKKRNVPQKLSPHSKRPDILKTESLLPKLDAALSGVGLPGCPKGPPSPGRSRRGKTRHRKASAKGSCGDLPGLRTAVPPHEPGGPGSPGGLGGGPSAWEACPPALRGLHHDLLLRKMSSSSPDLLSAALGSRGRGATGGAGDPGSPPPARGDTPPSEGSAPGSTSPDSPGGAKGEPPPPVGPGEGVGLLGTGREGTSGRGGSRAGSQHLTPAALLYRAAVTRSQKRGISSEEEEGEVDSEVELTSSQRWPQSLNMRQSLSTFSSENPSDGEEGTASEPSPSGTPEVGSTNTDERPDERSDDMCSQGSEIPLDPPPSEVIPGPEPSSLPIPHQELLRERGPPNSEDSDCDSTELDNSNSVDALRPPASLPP
T27 sequence (Q08345 19-913): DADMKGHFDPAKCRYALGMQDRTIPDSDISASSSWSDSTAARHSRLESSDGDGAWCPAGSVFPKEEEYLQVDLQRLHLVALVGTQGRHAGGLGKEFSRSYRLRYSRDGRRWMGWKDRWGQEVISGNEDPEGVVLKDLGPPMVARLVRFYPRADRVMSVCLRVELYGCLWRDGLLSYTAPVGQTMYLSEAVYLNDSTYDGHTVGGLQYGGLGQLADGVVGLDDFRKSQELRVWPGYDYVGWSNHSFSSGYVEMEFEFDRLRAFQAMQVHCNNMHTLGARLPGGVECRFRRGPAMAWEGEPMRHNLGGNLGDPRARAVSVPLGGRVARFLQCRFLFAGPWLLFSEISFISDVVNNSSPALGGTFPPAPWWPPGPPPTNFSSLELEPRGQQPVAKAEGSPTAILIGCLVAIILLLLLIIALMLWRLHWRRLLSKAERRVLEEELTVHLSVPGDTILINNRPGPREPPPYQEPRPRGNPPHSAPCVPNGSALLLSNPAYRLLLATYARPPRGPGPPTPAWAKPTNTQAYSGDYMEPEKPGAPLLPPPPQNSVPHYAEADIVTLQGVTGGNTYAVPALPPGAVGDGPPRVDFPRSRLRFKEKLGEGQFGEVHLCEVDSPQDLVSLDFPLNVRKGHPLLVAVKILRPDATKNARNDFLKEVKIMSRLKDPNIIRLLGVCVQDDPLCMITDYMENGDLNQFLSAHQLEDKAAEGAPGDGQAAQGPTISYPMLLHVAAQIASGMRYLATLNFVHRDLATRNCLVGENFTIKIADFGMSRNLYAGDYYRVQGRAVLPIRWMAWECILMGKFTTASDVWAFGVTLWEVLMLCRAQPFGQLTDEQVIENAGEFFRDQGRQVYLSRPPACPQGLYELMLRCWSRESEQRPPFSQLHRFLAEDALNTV
T24 sequence (P22607 23-806 K650M): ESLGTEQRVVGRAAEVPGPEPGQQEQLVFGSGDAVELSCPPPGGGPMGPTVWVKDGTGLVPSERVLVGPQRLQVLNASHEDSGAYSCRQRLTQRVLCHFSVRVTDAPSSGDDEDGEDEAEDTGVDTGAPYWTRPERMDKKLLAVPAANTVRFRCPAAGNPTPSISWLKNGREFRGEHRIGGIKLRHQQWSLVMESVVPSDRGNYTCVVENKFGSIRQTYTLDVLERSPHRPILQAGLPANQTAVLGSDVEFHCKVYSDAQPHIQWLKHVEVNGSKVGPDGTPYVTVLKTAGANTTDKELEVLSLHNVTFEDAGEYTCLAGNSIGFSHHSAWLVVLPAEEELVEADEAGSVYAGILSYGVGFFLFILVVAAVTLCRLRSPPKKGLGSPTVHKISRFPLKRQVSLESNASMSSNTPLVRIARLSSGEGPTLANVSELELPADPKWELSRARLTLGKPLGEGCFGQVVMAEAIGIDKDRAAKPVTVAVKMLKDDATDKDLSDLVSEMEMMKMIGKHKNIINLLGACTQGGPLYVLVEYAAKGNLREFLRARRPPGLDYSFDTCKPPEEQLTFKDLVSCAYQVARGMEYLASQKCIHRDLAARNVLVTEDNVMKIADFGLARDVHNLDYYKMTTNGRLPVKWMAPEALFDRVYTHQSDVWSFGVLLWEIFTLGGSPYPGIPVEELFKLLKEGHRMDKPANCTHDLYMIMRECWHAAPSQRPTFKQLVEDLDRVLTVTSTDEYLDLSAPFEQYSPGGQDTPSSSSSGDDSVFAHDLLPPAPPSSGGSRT

Work on [H]/N=C1/NC(=O)C(=Cc2ccc3c(c2)CCO3)S1 [CaNDY, (Z)-5-[(2,3-dihydrobenzofuran-5-yl)methylene]-2-iminothiazolidin-4-one] yielded a remaining activity at 1 µM (PGK) of 92.8%, a remaining activity at 1 µM (p38δ) of 74.8% and a remaining activity at 1 µM (PKACγ) of 78.2%. For the same compound, the remaining activity at 1 µM (PKCη) was 92.8%, the “%Activity” value (DLK_Cascade) was 102.6% and the remaining activity at 1 µM (AKT2) was 105%. The “%Activity” value (CHK1) was 93.5%, the remaining activity at 1 µM (FLT4) was 103% and the remaining activity at 1 µM (IKKβ) was 104%. The remaining activity at 1 µM (SRM) was 77%, the remaining activity at 1 µM (MARK1) was 94.4% and the “%Activity” value (MARK4) was 94.3%. It also gave a remaining activity at 1 µM (PASK) of 65.1%, a remaining activity at 1 µM (p70S6Kβ) of 88.9% and a remaining activity at 1 µM (CaMK4) of 103%. The remaining activity at 1 µM (MAP3K3_Cascade) was 104%, the “%Activity” value (EPHB2) was 99.8% and the “%Activity” value (EPHA5) was 100.1%. The remaining activity at 1 µM (AKT1) was 104%, the remaining activity at 1 µM (p38β) was 99.7% and the remaining activity at 1 µM (ALK(R1275Q)) was 98.5%. For the same compound, the remaining activity at 1 µM (MRCKα) was 128%, the “%Activity” value (MET) was 97.7% and the remaining activity at 1 µM (FGFR3(K650M)) was 101%. The remaining activity at 1 µM (EPHA6) was 96.8%, the “%Activity” value (p38α) was 95.9% and the remaining activity at 1 µM (DDR1) was 99.3%. The remaining activity at 1 µM (PKD3) was 85.9%, the remaining activity at 1 µM (SGK3) was 93.3% and the remaining activity at 1 µM (TSSK1) was 94.5%. It also gave a remaining activity at 1 µM (NPM1-ALK) of 97.8%, a remaining activity at 1 µM (DAPK1) of 80.6% and a remaining activity at 1 µM (YES) of 101%. The remaining activity at 1 µM (SRC) was 102%, the remaining activity at 1 µM (ROCK1) was 92.5% and the remaining activity at 1 µM (HIPK1) was 30.9%.

Source: PMC4522657, “Identification of a DYRK1A Inhibitor that Induces Degradation of the Target Kinase using Co-chaperone CDC37 fused with Luciferase nanoKAZ” (Scientific Reports, 2015)
